From patent US20070275052A1, “Pharmaceutical compositions containing sterol inhibitors” (Glenmark Pharmaceuticals Limited, priority 2006, published 2007) come the findings set out here.

The nature of the series: Initial experiments: drug release of ezetimibe having particle size about 25 microns. To be noted: ezetimibe particle size about 25 microns. In kind it is physicochemical. The text has this: The pharmaceutical compositions of present invention can be prepared with techniques well known in the art, preferably, direct compression, dry granulation and wet granulation.

For the compound `O=C1[C@H](CC[C@H](O)c2ccc(F)cc2)[C@@H](c2ccc(O)cc2)N1c1ccc(F)cc1` [ezetimibe, Ezetimibe], the “release of the drug” value is recorded as 40-50%.
